“Also recorded” adds a separate entry of the source.
Legend:
[1] = tested on: primary neurons; assay: NADPH/NADP ratio under excitotoxic conditions induced by glutamate; type: cell-based; conditions: 0.01 μM, FIG. 4A
[2] = tested on: iPSC-derived neural precursor cells (NPC) from CLN7 patients; assay: Perinuclear mitochondria in iPSC-derived neural precursor cells from CLN7 patients; type: cell-based; conditions: FIG. 16
[3] = tested on: mouse cortical primary neurons; assay: β-amyloid-induced neuronal apoptosis (annexin V/7-AAD flow cytometry); type: cell-based; conditions: β-amyloid 24 hours
Protocol: Primary cultures of C57BL/6 mice cortical neurons were prepared from fetal animals of 14.5 days of gestation, seeded at 1.8·10^5 cells/cm^2 in plastic plates coated with poly-D-lysine (10 mg/ml) and incubated in Neurobasal (Life Technologies) supplemented with 2 mM glutamine, 5 mM of glucose, 0.25 mM pyruvate and 2% B27 supplement (Life Technologies). Cells were incubated at 37° C. in a humidified 5% CO2-containing atmosphere. At 72 hours after plating, medium was replaced using Neurobasal (Life Technologies) supplemented with 2 mM glutamine, 5 mM glucose, 0.25 mM pyruvate and 2% B27 supplement (Life Technologies) minus antioxidants (MAO; i.e., lacking vitamin E, vitamin E acetate, superoxide dismutase, catalase and glutathione). […] APC/C-conjugated annexin-V and 7-amino-actinomycin D (7-AAD) (Becton Dickinson Biosciences, BDB, San Jose, Calif., USA) were used to determine quantitatively the percentage of apoptotic neurons by flow cytometry. Cells were stained with annexin V-APC and 7-AAD, following the manufacturer's instructions, and were analysed on a FACScalibur™ flow cytometer (15 mW argon ion laser tuned at 488 nm; CellQuest software, Becton Dickinson Biosciences) using the CellQuest software (BDB). Both GFP+ and GFP− cells were analyzed separately, and the annexin V-APC-stained cells that were 7-AAD-negative were considered to be apoptotic.

[4] = tested on: mouse primary cortical neurons; assay: NADPH/NADP upon excitotoxic stimuli; type: cell-based; conditions: glutamate 100 μM 10 minutes, then inhibitor 0.01 μM 24 hours
Protocol: Neurons were then washed and further incubated in culture medium with the PFKFB3 inhibitors for 24 hours. A colorimetric NADP/NADPH assay kit (Abcam) was used. Cells were resuspended in 500 μl of NADP/NADPH extraction buffer, vortexed and centrifuged at 14,000 rpm for 5 minutes to remove insoluble material. The supernatant was used for NADPH +plus NADP+ measurement. NADPH was determined in 200 μl of the supernatant, after […] 60° C. for 30 minutes to decompose NADP+. Actual NADP and NADPH+ concentrations were calculated by extrapolating values to a NADPH standard curve (0-100 pmol/well).

[5] = tested on: neurons transfected with PFK1-M; assay: Excitotoxic insult in neurons overexpressing PFK1-M; type: cell-based, mouse; conditions: PFK1-M (muscle isoform) overexpression
Protocol: To address whether the protection caused by PFKFB3 inhibitors was a consequence of hampering the glycolytic activation (FIG. 4B), we aimed to investigate whether the overexpression of the glycolytic enzyme, PFK1-muscle isoform, could revert PFKFB3 inhibitors-mediated neuroprotection. […] Accordingly, neurons were first transfected with the full-length cDNA encoding for PFK1-M, and then subjected to the excitotoxic insult. Cells were transfected with 1.6 μg/mL of a pIRES2-EGFP plasmid vector (Invitrogen) harbouring a full-length cDNA coding for the human muscle 6-phosphofructo-1-kinase muscle isoform (PFK1-M) (accession number, NM_000289.1) using Lipofectamine LTX-PLUS Reagent (Life Technologies) according with manufacturer's protocol. Transfections were performed 24 hours before cells collection. Control cells were transfected with the empty vector. Cells were treated with excitotoxic stimuli as described above.

[6] = tested on: iPSC-derived neural precursor cells (NPC) from CLN7 patients; assay: Patient-derived neural precursor cells, ATP5A immunocytochemistry; type: cell-based, human
Protocol: iPSC were generated from two CLN7 patients (Pa380 and Pa474). then characterized and differentiated to NPC as previously described39. […]
NPCs were fixed with 100% iced-cold methanol for 5 min and incubated in blocking solution (1% (v/v) normal goat serum, 0.1% (w/v) bovine serum albumin (BSA), 0.1% (v/v) Triton X-100 in DPBS). […] Slides were mounted with VECTASHIELD Mounting Medium with DAPI, incubated for 24 h at 4° C. and imaged with a Zeiss Axio Imager M2 fluorescence microscope or under an inverted microscope (Nikon; Eclipse Ti-E) equipped with a pre-centred fibre illuminator (Nikon; Intensilight C-HGFI), B/W CCD digital camera (Hamamatsu; ORCA-E.R.). Fluorescence quantification was performed. after appropriate thresholding using the ImageJ software (NIH). The pixel intensity profile of ATP5A immunodecoration was analyzed across the maximal axis of the cell that departs from the nucleus, using the plot profile plugin of ImageJ software. […]

[7] = tested on: influenza A H1N1 in MDCK; type: cell-based; conditions: 0, 0.1 μM, 1 μM, 10 μM and 100 μM

Cc1noc(C)c1Cn1cc(C#N)c2cc(Oc3ccc(NC(=O)[C@@H]4CCCN4)cc3)ccc21 [AZ67, (2S)-N-[4-({3-cyano-1-[(3,5-dimethyl-1,2-oxazol-4-yl)methyl]-1H-indol-5-yl}oxy)phenyl]pyrrolidine-2-carboxamide]
NADPH/NADP ratio [1]: restore NADPH/NADP ratio
loss of perinuclear mitochondria [2]: rectified the loss of perinuclear mitochondria
prevention of apoptotic neuronal death caused by β-amyloid [3]: ~60%
NADPH oxidation / NADPH/NADP ratio [4]: prevented; also recorded: restore NADPH/NADP ratio
neuroprotection under PFK1-M overexpression [5]: abolish the neuroprotection; also recorded: abrogates the neuroprotective effect
loss of perinuclear mitochondria [6]: rectified the loss of perinuclear mitochondria
antiviral activity (anti-HA immunostain) [7]: demonstrate antiviral activity
